Source: patent publication US20230172912A1, “COMPOUNDS FOR TREATING PNEUMONIA, SEPSIS, AND CORONAVIRUS INFECTION” (HEIDELBERG IMMUNOTHERAPEUTICS GMBH, priority 2020, published 2023)
Values joined by “and” are separate entries in the source; they are usually repeats but may differ in a detail not shown here. Identical values can stand only once. Like-named read-outs stand apart in the source and are kept apart here.

How the values were obtained:
[1] = system: severe COVID-19 (SARS-CoV-2 infection); assay type: in vivo
SARS-CoV-2 pneumonia = experiment: Time course of clinical inflammation parameters (CRP, transferrin saturation, IL-6) in serum of COVID-19 pneumonia patients; assay type: in vivo, human; conditions: COVID-19 pneumonia patients on standard therapy (piperacillin/tazobactam, caspofungin, hydroxychloroquine), FIG. 1
Method: Patients with diagnosed SARS-CoV-2 pneumonia received standard therapy with piperacillin/tazobactam, caspofungin, and hydroxychloroquine; where deemed clinically necessary, additionally Maraviroc, a CCR5 inhibitor, was administered as indicated in FIG. 1.
Patient characteristics were as follows: • Patient A (FIG. 1A): person, no relevant previous disease; • Patient B (FIG. 1B): person; • Patient C (FIG. 1C): person, no relevant previous disease; • Patient D (FIG. 1 D): person, state after chemotherapy for Burkitt lymphoma; under artificial respiration; • Patient E (FIG. 1E): person; • Patient F (FIG. 1 F): person; • Patient G (FIG. 1G): person, under artificial respiration; • Patient H (FIG. 1 H):person; • Patient I (FIG. 1 I): person; • Patient K (FIG. 1 K): person

[2] = system: serum cytokines and chemokines (IL-6, MIP-1b, IP-10, M-CSF); experiment: Clinical laboratory IL-6 and research serum cytokine and chemokine multiplex analysis before and after maraviroc; assay type: in vivo, human
Method: (§1) Clinical laboratory parameters were monitored daily. If patients gave voluntary consent, additional blood for cytokine and chemokine profiling in a research context was obtained and stored at -80° C. until use in the multiplex analysis (Bio-Plex Pro Human Cytokine 48-Plex Screening Panel plus ICAM and VCAM, Biorad, Munich, Germany) as described previously (Halama N, Michel S, Kloor M, et al., Cancer Res 2011;71:5670-7). Median protein concentrations per patient were compared in two groups: before and five or more days after the first day of maraviroc treatment.
For research cytokine analyses, cytokines which were undetectable in more than 3 samples were excluded. Correction for batch effects from three experiments was performed using the Python packagepycombat (version 0.14), and was validated by analyzing the mixture of samples within UMAP embeddings (McInnes L, Healy J, Melville J. UMAP: Uniform Manifold Approximation and Projection for Dimension Reduction. arXiv 2018). Wilcoxon signed-rank tests were used when comparing cytokine concentrations between groups. Resulting p-values were adjusted for multiple hypothesis testing according to the Benjamini and Hochberg method (Benjamini Y, Hochberg Y., J R Stat Soc B 1995;57:289-300). Kaplan-Meier estimator of survival was employed to visualize cumulative clinical improvement. Hazard ratio and the logrank test were used to compare improvement between patients in different groups using the R packages survival, survminer, and cmprsk. Stated percentages and quartiles include rounded numbers. Statistical analyses were carried out using R-3.5.3, Python-3.6.4, Excel (Microsoft), and SigmaPlot (Systat Software, Inc).

[3] = Safety and clinical laboratory parameters during maraviroc treatment of severe COVID-19; assay type: in vivo, human
Method: as §1
Monitoring of clinical laboratory parameters also included, among others, serum levels of creatinine for kidney function, white blood count, lymphocyte count, and interleukin 6 (IL-6) as markers of inflammation and infection.

interleukin 6 (IL-6) = conditions: 5 of 6 patients (range 83 to 8175 pg per milliliter), three days after administration; cited from earlier work
SARS-CoV-2 = conditions: severe COVID-19 cases; preprint; cited from earlier work
[4] = patients who received at least one dose before or concomitant to maraviroc
[5] = serum, subset of 14 patients, p<0.05, not significant after adjustment for multiple testing
[6] = Patient 43, day 5, decreased on days 6 and 7

Molecule: tocilizumab: concomitant investigational treatment
- number of patients who died [1, 4]: 3
- number of patients with no change on the ordinal scale from baseline [1, 4]: 1 of 4
- number of patients worsened on the ordinal scale from baseline [1, 4]: 3

Molecule: Cc1nnc(C(C)C)n1[C@@H]1C[C@H]2CC[C@@H](C1)N2CC[C@H](NC(=O)C1CCC(F)(F)CC1)c1ccccc1 [maraviroc, 4,4-difluoro—N—[(1S)-3-[(1S,5R)-3-(3-methyl-5-propan-2-yl-1,2,4-triazol-4-yl)-8-azabicyclo[3.2.1]octan-8-yl]-1-phenylpropyl]cyclohexane-1-carboxamide]
- increase of inflammation markers after administration (SARS-CoV-2 pneumonia): reverted in a very fast manner in all cases
- change in concentration of MIP-1b (CCL4) from before to after treatment ([2]; serum, subset of 14 patients, after = 5 days or more after baseline, FIG. 5): significant increase
- change in IP-10 (CXCL10) from before to after treatment [2, 5]: decrease
- change in M-CSF (CSF1) from before to after treatment [2, 5]: decrease
- median IL-6 level ([2]; three days after administration, decrease from baseline median 74.7 pg per milliliter, p-value=0.002): 37.7 pg per milliliter
- novel adverse events ([3]; 47 severe COVID-19 patients): no novel AEs have been observed
- increase in ALT from baseline [3, 6]: 2.8 fold
- increase in AST from baseline [3, 6]: 3.6 fold
- adverse event grade (CTCAE v5.0) ([3]; Patient 43, liver function): grade 2, moderate liver function AE
- other changes of clinical laboratory parameters ([3]; creatinine, white blood count, lymphocyte count, IL-6 among others, monitored daily): no other clinically significant changes were observed
- median time to a substantial clinical improvement from baseline ([1]; IQR 7-16 days): 9 days
- median time to improvement on the ordinal scale from baseline ([1]; all patients who improved, IQR 5-13 days): 8 days
- patients with improvement on the 6-stage ordinal scale ([1]; breathing ambient air at baseline, 2 of 2 patients): 100%
- patients worsened (died), mortality ([1]; invasive mechanical ventilation at baseline, 1 of 11 patients, 40 day observational period): 9.1% and 9%
- patients remained under invasive ventilation ([1]; invasive ventilation at baseline, 2 of 11 patients): 18.2%
- patients with improvement on the 6-stage ordinal scale ([1]; invasive ventilation at baseline, 8 of 11 patients): 72.7%
- median time to improvement on the ordinal scale from baseline ([1]; invasive ventilation at baseline, IQR 5-19 days): 14 days
- patients showing an improvement during the observational period ([1]; maraviroc patients not treated with HCQ, 14 of 18): 77.9%
- median time to improvement ([1]; maraviroc patients not treated with HCQ, IQR 3-11 days): 7 days
- patients showing an improvement during the observational period ([1]; maraviroc patients treated with at least one dose of HCQ, 22 of 29): 75.9%
- median time to improvement ([1]; maraviroc patients treated with at least one dose of HCQ, IQR 3-13 days): 6 days
- patients with improvement on the 6-stage ordinal scale ([1]; non-invasive ventilation at baseline, 7 of 11 patients): 63.6%
- median time to improvement on the ordinal scale from baseline ([1]; not receiving invasive ventilation at baseline, IQR 5-11 days): 7 days
- patients worsened from non-invasive to invasive ventilation ([1]; one patient of 47, after or during maraviroc treatment): 2.1%
- patients with no change on the 6-stage ordinal scale ([1]; overall cohort, 4 of 47 patients): 8.5%
- deaths (overall mortality) ([1]; overall cohort, 5 of 47 patients, 40 day time frame, median follow-up 12 days): 11%
- patients worsened on the 6-stage ordinal scale ([1]; overall cohort, 6 of 47 patients, including deaths): 12.8%
- patients discharged ([1]; overall cohort, 29 of 47 patients): 61.7%
- patients with substantial clinical improvement (decrease of two stages or more or discharge) ([1]; overall cohort, 34 of 47 patients, day of final data acquisition): 72%
- patients with improvement on the 6-stage ordinal scale ([1]; overall cohort, 37 of 47 patients, baseline until last day of data acquisition): 78.7%
- clinical outcome of coronavirus infection / severe COVID-19 cases ([1]; overall statement): remarkably positive clinical outcomes
- patients with improvement on the 6-stage ordinal scale ([1]; supplemental low-flow oxygen at baseline, 20 of 23 patients): 87%
- patients with no change ([1]; without invasive mechanical ventilation at baseline, 2 of 36 patients): 5.6%
- patients worsened ([1]; without invasive mechanical ventilation at baseline, 5 of 36 patients): 13.9%
- patients improved ([1]; without invasive mechanical ventilation at baseline, 29 of 36 patients): 80.6%

Molecule: C[C@]12C=CC(=O)C=C1CC[C@@H]1[C@@H]2[C@@H](O)C[C@@]2(C)[C@H]1CC[C@]2(O)C(=O)CO [prednisolone]
- number of patients who died ([1]; in vivo): 1
- number of patients improved on the ordinal scale from baseline [1, 4]: 3 of 7
- number of patients with no change on the ordinal scale from baseline [1, 4]: 2
- number of patients worsened on the ordinal scale from baseline [1, 4]: 2

B1: leronlimab: humanized IgG4 monoclonal antibody that blocks the chemokine receptor CCR5 on immune cells (antibody, chains of the INN, looked up, V domains shown)
VH: EVQLVESGGGLVKPGGSLRLSCAASGYTFSNYWIGWVRQAPGKGLEWIGDIYPGGNYIRNNEKFKDKTTLSADTSKNTAYLQMNSLKTEDTAVYYCGSSFGSNYVFAWFTYWGQGTLVTVSS
VL: DIVMTQSPLSLPVTPGEPASISCRSSQRLLSSYGHTYLHWYLQKPGQSPQLLIYEVSNRFSGVPDRFSGSGSGTDFTLKISRVEAEDVGVYYCSQSTHVPLTFGQGTKVEIK
- change of high IL-6 levels (interleukin 6 (IL-6)): decreased substantially
- change in plasma viral load (SARS-CoV-2): decrease
